Results on 11 molecules are retold here after article PMC4690813 (Journal of medicinal chemistry, 2015).

In one assay the target is T1, recombinant human DAGLα (Homo sapiens, UniProt Q9Y4D2).
T1 sequence (Q9Y4D2 1-1042): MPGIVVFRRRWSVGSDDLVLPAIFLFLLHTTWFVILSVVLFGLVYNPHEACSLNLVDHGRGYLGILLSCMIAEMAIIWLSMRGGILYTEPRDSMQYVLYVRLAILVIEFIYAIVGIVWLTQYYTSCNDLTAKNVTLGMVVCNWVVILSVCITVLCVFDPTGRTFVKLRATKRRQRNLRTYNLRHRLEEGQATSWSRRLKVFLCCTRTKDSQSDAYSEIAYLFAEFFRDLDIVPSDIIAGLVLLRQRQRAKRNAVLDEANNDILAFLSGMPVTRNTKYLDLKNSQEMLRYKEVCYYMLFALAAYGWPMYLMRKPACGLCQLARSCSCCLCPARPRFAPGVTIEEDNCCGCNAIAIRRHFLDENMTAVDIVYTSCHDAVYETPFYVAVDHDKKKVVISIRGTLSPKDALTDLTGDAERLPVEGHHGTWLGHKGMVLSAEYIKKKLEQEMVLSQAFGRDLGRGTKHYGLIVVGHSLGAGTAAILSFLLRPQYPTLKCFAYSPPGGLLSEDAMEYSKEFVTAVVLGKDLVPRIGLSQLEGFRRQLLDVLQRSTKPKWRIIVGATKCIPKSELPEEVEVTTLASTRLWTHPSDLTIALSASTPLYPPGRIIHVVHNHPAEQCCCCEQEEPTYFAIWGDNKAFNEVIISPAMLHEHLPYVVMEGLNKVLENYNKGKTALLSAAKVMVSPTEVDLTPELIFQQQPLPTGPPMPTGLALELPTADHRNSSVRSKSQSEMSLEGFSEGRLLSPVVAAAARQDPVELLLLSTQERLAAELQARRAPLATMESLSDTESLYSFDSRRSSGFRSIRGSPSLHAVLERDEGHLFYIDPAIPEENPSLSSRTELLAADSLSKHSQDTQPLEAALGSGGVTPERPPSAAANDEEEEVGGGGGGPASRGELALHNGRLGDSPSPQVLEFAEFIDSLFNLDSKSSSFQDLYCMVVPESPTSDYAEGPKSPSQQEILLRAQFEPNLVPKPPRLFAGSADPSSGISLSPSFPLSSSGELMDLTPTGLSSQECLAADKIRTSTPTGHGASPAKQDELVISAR
Nature of the assay: colorimetric DAGLα activity assay. Type of assay: biochemical. The note with it: for LipE: LipE = pIC50 - cLogP; for fold drop in potency/activity: 2 compared to 1, 109 compared to 1, 122 compared to oleoyl analogue 121.

In assay [1] the test system is panel of serine hydrolases. As to conditions: gel-based competitive ABPP; FAAH only detected off-target; ref [12], [13]; cited from earlier work.
Another assay concerns FAAH. Nature of the assay: FAAH activity reported in the literature. Type of assay: biochemical. As to conditions: DAGLα pIC50 versus previously reported FAAH pKi.

As for `O=C(CCCCCc1ccccc1)c1nc2ncccc2o1` [Compound 1, 1-(Oxazolo[4,5-b]pyridin-2-yl)-6-phenylhexan-1-one], the LipE at recombinant human DAGLα came out at 3.35. The “selectivity over a panel of serine hydrolases” value in assay [1] was “highly selective”.
With `O=C(CCCCCCc1ccccc1)c1nc(C(=O)C(F)(F)F)co1` [Compound 45], the “selectivity over FAAH” value with FAAH is listed as “selective over FAAH”.
For `O=C(CCc1ccccc1)c1nc2ncccc2o1` [Compound 106, 1-(Oxazolo[4,5-b]pyridin-2-yl)-3-phenylpropan-1-one], at recombinant human DAGLα, the LipE is reported as 2.11.
Still for that read-out and setting: under `O=C(CCCc1ccccc1)c1nc2ncccc2o1` [Compound 107, 1-(Oxazolo[4,5-b]pyridin-2-yl)-4-phenylbutan-1-one] stands 2.64.
Still for that read-out and setting: under `O=C(CCCCc1ccccc1)c1nc2ncccc2o1` [Compound 108, 1-(Oxazolo[4,5-b]pyridin-2-yl)-5-phenylpentan-1-one] stands 3.15.
As to `O=C(CCCCCCc1ccccc1)c1nc2ncccc2o1` [Compound 109, 1-(Oxazolo[4,5-b]pyridin-2-yl)-7-phenylheptan-1-one], at recombinant human DAGLα, the “fold drop in potency/activity” value is on record as more than 10 fold and the LipE is 1.68.
As to `O=C(CCCCCCCc1ccccc1)c1nc2ncccc2o1` [Compound 110, 1-(Oxazolo[4,5-b]pyridin-2-yl)-8-phenyloctan-1-one], the LipE on recombinant human DAGLα came to 2.20.
Regarding `O=C(CCCCCCCCc1ccccc1)c1nc2ncccc2o1` [Compound 111], at recombinant human DAGLα, the LipE came out at 2.78.
For `CCCCC/C=C\C/C=C\C/C=C\C/C=C\CCCC(=O)c1nc2ncccc2o1` [Compound 122], the “fold drop in potency/activity” value on recombinant human DAGLα is approximately 100 fold.
In the case of `CCCCCCCC/C=C\CCCCCCCC(=O)c1nc2ccccc2[nH]1` [Compound 123], the “selectivity over FAAH” value in the assay with FAAH is on record as “selective over FAAH”.
For the molecule `O=C(CCCCCCc1ccccc1)c1ncc(-c2ccccn2)o1` [OL-135, reference compound], on recombinant human DAGLα, the “DAGLα inhibitor activity (in words)” value was “not active”.
